Test results taken from patent US9499488B2, “Vitamin D receptor agonists and uses thereof” (Beth Israel Deaconess Medical Center, Inc., priority 2011, dated 2016).

Key:
[1] = target: T1, VDR (GAL4-DBD/VDR-LBD fusion protein in HEK293T cells) (Homo sapiens, UniProt P11473); experiment: GeneBLAzer cell-based VDR assay (VDR-UAS-bla HEK 293T, beta-lactamase reporter); settings: for Activity: agonist or antagonist at VDR, compounds of formula (I) tested as mixture of diastereomers; for VDR agonistic activity (degree, in words): high throughput screen of vitamin D receptor activity
T1 construct: the targeting construct (GAL4-DBD/VDR-LBD) fusion protein engineered in a HEK293T cell line containing 7XUAS-bla; host or cells: GeneBLAzer VDR-UAS-bla HEK 293T cells
T1 sequence (P11473 127-423 limits assumed): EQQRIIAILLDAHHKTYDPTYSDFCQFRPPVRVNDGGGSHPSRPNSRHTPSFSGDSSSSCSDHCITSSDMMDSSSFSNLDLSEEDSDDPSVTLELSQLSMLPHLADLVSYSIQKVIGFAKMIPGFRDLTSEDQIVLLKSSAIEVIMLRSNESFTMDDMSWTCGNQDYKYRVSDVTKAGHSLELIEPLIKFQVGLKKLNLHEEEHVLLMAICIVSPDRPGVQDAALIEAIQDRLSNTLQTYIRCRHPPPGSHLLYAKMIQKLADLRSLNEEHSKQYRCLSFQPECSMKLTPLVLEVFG
Description: High throughput assay validation of the top ranked unique molecules from each of three PDB conformations on the basis of docking score (glide score+ionization state penalty). From this priority list 200 of the best ranked molecules, following ADMET evaluation, were purchased and subjected to binding assays. The compounds of formula (I) were obtained and tested as a mixture of diastereomers.
To determine which compounds identified by virtual screens are actually capable of regulating the transcriptional profile of VDR, we performed GeneBLAzer® Cell-Based VDR Assay (kit was bought from Invitrogen and assay performed as per instructions). Upon binding of a VDR agonist to the targeting construct (GAL4-DBD/VDR-LBD) fusion protein engineered in a HEK293T cell line containing 7XUAS-bla, a transcriptional cascade is initiated that produces β-lactamase (BLA). In the presence of the BLA LiveBLAzer™ substrate, cells expressing BLA will fluoresce blue (460 nm), while those not expressing BLA will fluoresce green (530 nm); higher […] ratio indicating the activation of VDR, whereas in presence of calcitriol (potent agonist) diminishing of this ratio indicates an antagonist behavior of the ligand. The agonist and antagonist abilities of CADD-selected compounds were determined in six-point concentration profile and compared with vehicle.
GeneBLAzer® VDR-UAS-bla HEK 293T cells were purchased from Invitrogen (Cat# K1700). The cells were cultured in growth medium in a humidified (37° C./5% CO2) incubator following the manufacture's instruction. Test compounds (ChemBridge, San Diego, Calif.) and Calcitriol (1α,25-Dihydroxyvitamin D3, Sigma) were dissolved in 100% DMSO(Sigma) at 1000-fold stock concentration and stored at −20° C., which were diluted in assay medium immediately prior to use. LiverBLAzer-FRET B/G loading kit was purchased from Invitrogen.
The GeneBLAzer® VDR-UAS-bla HEK 293T cell-based assay was used to screen 200 compounds for activity at the vitamin D receptor. The assay was run in triplicate following the manufacture's instruction. Briefly, 2×10^4 cells in 32 μl assay medium were added to each well of a 384-well black-wall assay plate (Corning Incorporated, Cat#3712). To each well was added 8 al of compound solution diluted in assay medium, the cells were incubated in a humidified (37° C./5% CO2) incubator for 5 hours. The cell-free wells (containing 32 μl assay medium only) and unstimulated cell wells were treated in parallel with the same concentration of DMSO in assay medium, which were used as background controls and blank controls, respectively. Calcitriol was used as a positive control. To each well was added 8 μl of LiverBLAzer-FRET B/G substrate mixture. The plate was covered with plate sealer and incubated at room temperature for 2 hours in the dark. Fluorescence emission was measured on SpectraMax plate reader at 460 nm and 530 nm with excitation set to 409 nm. After subtraction of background, the average value at 460 nm was divided by the average value at 530 nm to obtain the 460/530 ratio.

[2] = tested on: adult rat cardiomyocytes (ARCMs); experiment: Phenylephrine-induced hypertrophy in adult rat cardiomyocytes in vitro (ANP level); assay type: cell-based; settings: pre-treated 24 hours, then PE (100 μM) for 48 hours
Experimental: We used adult rat cardiomyocytes (ARCMs) in these studies because heart failure is predominantly a disease of the adult heart. ARCM cultures were prepared from the hearts of female Sprague-Dawley rats by enzymatic dissociation using 0.3% collagenase. Each heart yields about 3-4×10^6 viable ventricular cardiomyocytes. Freshly isolated adult cardiomyocyte cultures contain >90% rod-shaped myocytes and less than 1% of the cells are non-myocytes. The cells were used within 24 hours of plating.
We examined how the response of cardiomyocytes to specific hypertrophic stimulus, phenylephrine (PE) is modulated by pretreatment with compound 10 as compared to known activated vitamin D analog, paricalcitol (PC). In this experiment, ARCM was pre-treated with vehicle, compound 10 (different doses) or paricalcitol ([…]) for 24 hours. The cells were then exposed to PE (100 μM) or vehicle for 48 hours. After exposing the cells to hypertrophic stimulation for 48 hours, they were collected and analyzed for several well-established parameters of cardiac hypertrophy, such as tissue atrial natriuretic peptide (ANP) level.

[3] = Calcemic effects: serum ionized calcium in 1α-hydroxylase knock out mice; assay type: in vivo; settings: 1α-OH KO mice; for increase in serum calcium level compared to the vehicle, long term: 0.6 μg/kg for one week (three administrations); for increase in serum calcium level compared to the vehicle, short term: 24 hours after administration, 0.60 and 3.0 μg/kg doses
Experimental: We performed short-term (24 hours) and long-term (7 days) in vivo experiments comparing the calcemic effect of compound 10 (aka VDRA) to an equivalent dose of calcitriol.
For this study, we used 1α-hydroxylase (1α-OH) knock out (KO) mice, which lack 1α-OH, an enzyme that converts 25(OH)VitD3 to the hormonally active form, 1,25-dihydroxyvitamin D3 (1,25(OH)2VitD3) or calcitriol. These mice are designed to have a low vitamin D level at baseline and are hypocalcemic.
For the short term experiment, we administered 0.6 μg/kg (therapeutic dose) and 3 μg/kg (supratherapeutic dose) of vehicle, calcitriol or compound 10, and then measured serum calcium level 24 hours after administration.
For the long-term experiment, we administered 0.6 μg/kg of vehicle, calcitriol or compound 10 for one week. We administered the drugs on Wednesday, Friday, and Monday, and measured serum calcium level on the following Tuesday.
Serum ionized calcium levels were measured using clinical grade iSTAT system (Abbott laboratories).

[4] = Inhibition of hyperparathyroidism: serum PTH in 1α-hydroxylase knock out mice; assay type: in vivo; settings: 0.6 μg/kg three times a week; 1α-OH KO mice; serum PTH ELISA
Description: We performed long-term (7 days) in vivo experiments comparing the parathyroid hormone (PTH) levels following administration of compound 10 (aka VDRA) to an equivalent dose of paricalcitol (PC), a VDR agonist used to treat secondary hyperparathyroidism.
For this study, we used 1α-hydroxylase (1α-OH) knock out (KO) mice, which lack 1α-OH, an enzyme that converts 25(OH)VitD3 to the hormonally active form, 1,25-dihydroxyvitamin D3 (1,25(OH)2VitD3). These mice are designed to have a low vitamin D level at baseline and are hypocalcemic.
We administered 0.6 μg/kg of compound 10 or paricalcitol three times a week (Mon, Wed, Fri) for three weeks. Serum PTH level was measured using a PTH (intact, mouse) ELISA immunoassay (Alpco, Salem, Mass.).

[5] = Phenylephrine (PE) induced cardiac hypertrophy in mice; assay type: in vivo; settings: PE 30 mg/kg/day via osmotic pump 7 days; compound 60 ng/kg 3×/week intraperitoneally
Experimental: FIGS. 5A-5C are bar graphs depicting the anti-hypertrophic potential of compound 10 (aka VDRA) in phenylephrine (PE) induced cardiac hypertrophy in mice (see Example 6). […] Mice were infused with PE (30 mg/kg/day) via osmotic pump for 7 days. In FIGS. 5A-5C (i) Con=control group with the same amount of saline infusion by osmotic pump; (ii) Vehicle or VDRA ([…]) were injected 3×/week intraperitoneally; (iii) total volume injected=50 μL/animal/injection; (iv) *=p<0.05 vs Control; (v) **=p<0.05 vs Vehicle; and (vi) N=4.
The anti-hypertrophic potential of compound 10 (aka VDRA) in phenylephrine (PE) induced cardiac hypertrophy in mice was evaluated in vivo. WT mice were infused with phenylephrine (PE) (30 mg/kg/day) via osmotic pump for 7 days. After 7 days, the mice were sacrificed, organ weighed, and hearts were obtained for mRNA processing. Vehicle or compound 10 (60 ng/kg) were injected 3×/week intraperitoneally (total volume injected=50 μL/animal/injection).

SMILES	Activity [1]	further results
CCOC(=O)C1=C(C)NC2=C(C(=O)CC(c3ccc(Cl)cc3)C2)C1c1ccc(F)cc1 (stereo not drawn) [Compound 2]	Agonist	–
COc1ccc(C2C(C(=O)OCCOc3ccccc3)=C(C)NC3=C2C(=O)CC(c2ccccc2)C3)cc1O (stereo not drawn) [Compound 3]	Agonist	–
CCOC(=O)C1=C(C)NC2=C(C(=O)CC(c3ccc(OC)cc3)C2)C1c1cccc(O)c1 (stereo not drawn) [Compound 4]	Antagonist	–
CCSCCOC(=O)C1=C(C)NC2=C(C(=O)CC(c3ccccc3OC)C2)C1c1ccccc1F (stereo not drawn) [Compound 6]	Agonist	–
CCSCCOC(=O)C1=C(C)NC2=C(C(=O)CC(c3ccc(Cl)cc3)C2)C1c1cccc(OC)c1 (stereo not drawn) [Compound 10]	Agonist	anti-hypertrophic effect (ANP level) [2]: significant anti-hypertrophic effect; increase in serum calcium level compared to the vehicle, long term [3]: did not show any increase; increase in serum calcium level compared to the vehicle, short term [3]: did not show significant increase; PTH levels [4]: significantly reduced; PE-induced ANF (atrial natriuretic factor) activation in left ventricular tissue (mRNA) [5]: effectively suppressed; PE-induced heart weight/body weight (HW/BW) ratio [5]: effectively blocked; PE-induced lung weight/BW (LW/BW) ratio [5]: effectively blocked
COc1ccc(C2CC(=O)C3=C(C2)NC(C)=C(C(=O)OCCOc2ccccc2)C3c2ccccc2)cc1 (stereo not drawn) [Compound 12]	Agonist	–
CCSCCOC(=O)C1=C(C)NC2=C(C(=O)CC(c3ccc(Cl)cc3)C2)C1c1ccccc1OC (stereo not drawn) [Compound 15]	Agonist	–
Cc1cccc(OCC(=O)Nc2ccc(S(=O)(=O)Nc3c(C)cc(C)cc3C)cc2)c1 [Compound 20]	Agonist	–
CCc1ccc(OCC(=O)Nc2ccc(S(=O)(=O)Nc3cc(C)cc(C)c3)cc2)cc1 [Compound 21]	Antagonist	–
COc1ccc(NS(=O)(=O)c2ccc(NC(=O)COc3ccccc3C)cc2)cc1 [Compound 24]	Antagonist	–
C=C1/C(=C\C=C2/CCC[C@]3(C)[C@@H]([C@H](C)CCCC(C)(C)O)CC[C@@H]23)C[C@@H](O)C[C@@H]1O [calcitriol, 1α,25-Dihydroxyvitamin D3, reference compound]	–	increase in serum calcium level compared to the vehicle, long term [3]: about 45%; increase in serum calcium level compared to the vehicle, short term [3]: did not show significant increase
C[C@H](/C=C/[C@H](C)C(C)(C)O)[C@H]1CC[C@H]2/C(=C/C=C3C[C@@H](O)C[C@H](O)C3)CCC[C@]12C [paricalcitol, reference compound]	–	PTH levels [4]: significantly reduced

Continued, in another order:

Activity [1]	SMILES	further results
Agonist	CCSCCOC(=O)C1=C(C)NC2=C(C(=O)CC(c3ccccc3)C2)C1c1ccccc1 (stereo not drawn) [Compound 1]	VDR agonistic activity (degree, in words) [1]: highest degree of agonistic activity
Agonist	CCc1ccc(C2C(C(=O)OCCOc3ccccc3)=C(C)NC3=C2C(=O)CC(c2ccc(OC)cc2)C3)cc1 (stereo not drawn) [Compound 5]	–
Agonist	CCOc1cc(C2C(C(=O)OCCSCC)=C(C)NC3=C2C(=O)CC(c2ccc(OC)cc2)C3)ccc1O (stereo not drawn) [Compound 7]	–
Agonist	COCCOC(=O)C1=C(C)NC2=C(C(=O)CC(c3ccc(Cl)cc3)C2)C1c1ccc(Br)cc1 (stereo not drawn) [Compound 8]	–
Antagonist	CCOC(=O)C1=C(C)NC2=C(C(=O)CC(c3ccc(OC)cc3)C2)C1c1ccc(O)cc1 (stereo not drawn) [Compound 9]	–
Agonist	CCSCCOC(=O)C1=C(C)NC2=C(C(=O)CC(c3ccc(Cl)cc3)C2)C1c1ccccc1F (stereo not drawn) [Compound 11]	–
Agonist	CCSCCOC(=O)C1=C(C)NC2=C(C(=O)CC(c3ccc(OC)cc3)C2)C1c1ccccc1F (stereo not drawn) [Compound 13]	–
Agonist	COCCOC(=O)C1=C(C)NC2=C(C(=O)CC(c3ccc(Cl)cc3)C2)C1c1ccc(C)cc1 (stereo not drawn) [Compound 14]	–
Agonist	CCOCCOC(=O)C1=C(C)NC2=C(C(=O)CC(c3ccc(Cl)cc3)C2)C1c1ccc(F)cc1 (stereo not drawn) [Compound 16]	–
Agonist	CCSCCOC(=O)C1=C(C)NC2=C(C(=O)CC(c3ccc(OC)cc3)C2)C1c1ccccc1OC (stereo not drawn) [Compound 17]	–
Agonist	Cc1ccc(OCC(=O)Nc2ccc(S(=O)(=O)Nc3c(C)cc(C)cc3C)cc2)cc1 [Compound 18]	VDR agonistic activity (degree, in words) [1]: modest agonist activity
Agonist	Cc1cc(C)c(NS(=O)(=O)c2ccc(NC(=O)COc3ccc(Cl)cc3)cc2)c(C)c1 [Compound 19]	–
Antagonist	Cc1cc(C)c(NS(=O)(=O)c2ccc(NC(=O)COc3ccc(Cl)cc3Cl)cc2)c(C)c1 [Compound 22]	–
Antagonist	Cc1cccc(OCC(=O)Nc2ccc(S(=O)(=O)Nc3ccc(C)cc3C)cc2)c1 [Compound 23]	–
